In ChEMBL document CHEMBL5715260, “Selectivity Literature for EUbOPEN Chemogenomic Library” (2024):

How the values were obtained:
Design in all cases: recommended concentration 1 uM
[1] = target: T1, Retinoic acid receptor RXR-alpha (Homo sapiens) (UniProt P19793); test: Selectivity interaction (Reporter gene assay) EUB0000551aCl RXRA; conditions: reference bexarotene 1 uM, Selectivity number of off-targets 0.0, Selectivity number of targets 1.0, Source Knowledge inhouse
T1 sequence (whole entry): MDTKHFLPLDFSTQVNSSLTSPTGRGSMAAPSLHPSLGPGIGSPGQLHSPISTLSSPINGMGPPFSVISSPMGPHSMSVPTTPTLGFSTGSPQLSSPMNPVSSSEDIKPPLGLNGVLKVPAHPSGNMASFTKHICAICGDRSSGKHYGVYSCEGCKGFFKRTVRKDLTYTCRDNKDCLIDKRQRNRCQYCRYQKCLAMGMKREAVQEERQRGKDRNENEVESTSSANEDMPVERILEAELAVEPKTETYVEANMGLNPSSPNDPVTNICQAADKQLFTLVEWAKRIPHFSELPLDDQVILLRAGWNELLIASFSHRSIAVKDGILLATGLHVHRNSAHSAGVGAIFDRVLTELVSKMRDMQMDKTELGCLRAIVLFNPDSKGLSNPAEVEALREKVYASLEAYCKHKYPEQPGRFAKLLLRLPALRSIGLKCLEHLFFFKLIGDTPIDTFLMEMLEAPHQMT

[2] = target: Nuclear receptor subfamily 2 group E member 1 (Homo sapiens) (UniProt Q9Y466); test: Selectivity interaction (Reporter gene assay) EUB0000551aCl NR2E1
Chain of Nuclear receptor subfamily 2 group E member 1 (Homo sapiens) (Q9Y466 whole entry): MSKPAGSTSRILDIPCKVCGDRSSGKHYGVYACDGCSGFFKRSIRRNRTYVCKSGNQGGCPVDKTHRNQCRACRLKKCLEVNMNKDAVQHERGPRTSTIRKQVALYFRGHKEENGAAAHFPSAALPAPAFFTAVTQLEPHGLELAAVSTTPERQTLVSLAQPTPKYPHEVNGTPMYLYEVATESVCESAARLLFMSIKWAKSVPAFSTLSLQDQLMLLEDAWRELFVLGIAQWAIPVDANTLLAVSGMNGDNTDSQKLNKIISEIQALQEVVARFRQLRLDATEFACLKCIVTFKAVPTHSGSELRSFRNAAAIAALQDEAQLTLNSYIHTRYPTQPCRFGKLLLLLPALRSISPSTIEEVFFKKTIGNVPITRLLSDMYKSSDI

[3] = target: T2, Hepatocyte nuclear factor 4-alpha (Homo sapiens) (UniProt P41235); test: Selectivity interaction (Reporter gene assay) EUB0000551aCl HNF4A
T2 sequence (whole entry): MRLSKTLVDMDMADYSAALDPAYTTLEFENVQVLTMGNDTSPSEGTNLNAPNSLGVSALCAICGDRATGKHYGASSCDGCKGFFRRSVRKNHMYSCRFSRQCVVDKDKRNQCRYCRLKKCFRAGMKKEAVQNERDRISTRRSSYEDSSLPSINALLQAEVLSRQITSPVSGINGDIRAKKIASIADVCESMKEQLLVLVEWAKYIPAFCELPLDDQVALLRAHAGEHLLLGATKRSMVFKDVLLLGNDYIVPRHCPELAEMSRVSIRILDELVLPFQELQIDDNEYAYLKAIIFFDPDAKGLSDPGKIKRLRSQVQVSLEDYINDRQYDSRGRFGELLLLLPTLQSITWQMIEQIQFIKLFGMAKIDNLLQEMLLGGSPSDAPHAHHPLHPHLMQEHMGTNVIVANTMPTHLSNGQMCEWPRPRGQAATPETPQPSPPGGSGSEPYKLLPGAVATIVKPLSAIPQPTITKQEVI

[4] = target: T3, Alpha trans-inducing protein (Human alphaherpesvirus 1) (UniProt A0A5J6DW59); test: Selectivity interaction (Reporter gene assay) EUB0000551aCl UL48
T3 sequence (A0A5J6DW59 as listed by the source): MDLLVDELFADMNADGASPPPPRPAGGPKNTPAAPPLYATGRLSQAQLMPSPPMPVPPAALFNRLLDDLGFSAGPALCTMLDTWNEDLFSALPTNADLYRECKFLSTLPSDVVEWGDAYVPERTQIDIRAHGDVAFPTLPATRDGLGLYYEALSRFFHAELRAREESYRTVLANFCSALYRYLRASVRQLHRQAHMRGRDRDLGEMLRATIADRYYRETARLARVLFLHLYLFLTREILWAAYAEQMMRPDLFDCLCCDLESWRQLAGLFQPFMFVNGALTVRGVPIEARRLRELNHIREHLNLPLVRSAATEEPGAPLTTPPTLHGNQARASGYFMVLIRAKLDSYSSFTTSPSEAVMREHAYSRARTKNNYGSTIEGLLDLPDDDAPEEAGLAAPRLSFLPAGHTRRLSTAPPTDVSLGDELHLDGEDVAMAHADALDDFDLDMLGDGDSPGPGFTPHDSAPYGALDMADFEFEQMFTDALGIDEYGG

[5] = target: Steroidogenic factor 1 (Homo sapiens) (UniProt Q13285); test: Selectivity interaction (Reporter gene assay) EUB0000551aCl NR5A1
Chain of Steroidogenic factor 1 (Homo sapiens) (Q13285 whole entry): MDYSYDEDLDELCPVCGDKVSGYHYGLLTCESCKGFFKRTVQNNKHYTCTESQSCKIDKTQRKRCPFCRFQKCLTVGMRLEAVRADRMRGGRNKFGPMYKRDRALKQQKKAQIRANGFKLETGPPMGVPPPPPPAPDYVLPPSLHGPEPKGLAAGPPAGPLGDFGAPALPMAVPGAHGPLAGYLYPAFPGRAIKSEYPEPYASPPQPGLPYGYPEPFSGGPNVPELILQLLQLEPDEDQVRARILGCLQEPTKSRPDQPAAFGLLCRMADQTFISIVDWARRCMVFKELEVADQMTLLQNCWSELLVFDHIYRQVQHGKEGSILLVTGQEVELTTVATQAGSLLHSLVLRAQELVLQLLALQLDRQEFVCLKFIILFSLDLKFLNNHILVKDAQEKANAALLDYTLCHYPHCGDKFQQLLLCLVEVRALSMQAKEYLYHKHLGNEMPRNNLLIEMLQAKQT

[6] = target: T4, Nuclear receptor subfamily 2 group C member 1 (Homo sapiens) (UniProt P13056); test: Selectivity interaction (Reporter gene assay) EUB0000551aCl NR2C1
T4 sequence (whole entry): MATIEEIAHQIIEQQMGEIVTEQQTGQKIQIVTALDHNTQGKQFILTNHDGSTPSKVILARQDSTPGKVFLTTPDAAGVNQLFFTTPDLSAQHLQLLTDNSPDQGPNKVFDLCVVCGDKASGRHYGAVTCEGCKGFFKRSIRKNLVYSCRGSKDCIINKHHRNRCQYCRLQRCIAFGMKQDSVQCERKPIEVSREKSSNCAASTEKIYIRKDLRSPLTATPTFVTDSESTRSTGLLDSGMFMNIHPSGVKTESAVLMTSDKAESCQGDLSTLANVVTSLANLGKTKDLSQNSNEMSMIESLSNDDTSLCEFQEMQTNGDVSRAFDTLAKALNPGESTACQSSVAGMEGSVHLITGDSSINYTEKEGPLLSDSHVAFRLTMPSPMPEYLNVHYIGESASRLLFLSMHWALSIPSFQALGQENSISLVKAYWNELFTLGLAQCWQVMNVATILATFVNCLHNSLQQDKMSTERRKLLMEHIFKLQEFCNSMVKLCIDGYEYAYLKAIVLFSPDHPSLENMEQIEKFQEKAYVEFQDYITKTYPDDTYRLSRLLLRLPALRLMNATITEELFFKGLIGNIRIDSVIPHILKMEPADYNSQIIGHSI

[7] = target: Nuclear receptor subfamily 4immunitygroup A member 1 (Homo sapiens) (UniProt P22736); test: Selectivity interaction (Reporter gene assay) EUB0000551aCl NR4A1
Chain of Nuclear receptor subfamily 4immunitygroup A member 1 (Homo sapiens) (P22736 whole entry): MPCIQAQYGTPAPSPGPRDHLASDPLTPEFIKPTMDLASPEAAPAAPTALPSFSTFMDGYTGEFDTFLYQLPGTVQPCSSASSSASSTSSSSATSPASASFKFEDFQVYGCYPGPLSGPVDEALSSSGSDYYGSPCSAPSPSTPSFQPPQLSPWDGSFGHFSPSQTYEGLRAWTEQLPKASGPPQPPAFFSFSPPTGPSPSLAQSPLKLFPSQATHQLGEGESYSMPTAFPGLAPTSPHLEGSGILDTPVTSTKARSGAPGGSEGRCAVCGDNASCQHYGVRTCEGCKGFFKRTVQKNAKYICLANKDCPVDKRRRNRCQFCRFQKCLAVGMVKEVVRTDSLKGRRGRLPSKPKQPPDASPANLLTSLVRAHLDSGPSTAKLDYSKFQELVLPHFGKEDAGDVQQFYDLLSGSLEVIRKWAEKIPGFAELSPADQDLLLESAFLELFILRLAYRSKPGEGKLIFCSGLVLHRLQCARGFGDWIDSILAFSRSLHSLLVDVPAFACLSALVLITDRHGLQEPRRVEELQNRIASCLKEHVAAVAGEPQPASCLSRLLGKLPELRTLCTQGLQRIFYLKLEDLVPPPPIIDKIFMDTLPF

[8] = target: Nuclear receptor subfamily 4immunitygroup A member 1 (Homo sapiens) (UniProt P22736); test: Selectivity interaction (Reporter gene assay) EUB0000568a NR4A1
[9] = target: T2, Hepatocyte nuclear factor 4-alpha (Homo sapiens); test: Selectivity interaction (Reporter gene assay) EUB0000568a HNF4A
[10] = target: Steroidogenic factor 1 (Homo sapiens) (UniProt Q13285); test: Selectivity interaction (Reporter gene assay) EUB0000568a NR5A1
[11] = target: T4, Nuclear receptor subfamily 2 group C member 1 (Homo sapiens); test: Selectivity interaction (Reporter gene assay) EUB0000568a NR2C1; conditions: screened at recom. conc., Selectivity number of off-targets 2.0, Selectivity number of targets 5.0, Source Knowledge inhouse
[12] = target: T1, Retinoic acid receptor RXR-alpha (Homo sapiens); test: Selectivity interaction (Reporter gene assay) EUB0000568a RXRA; conditions: reference bexarotene 1 uM, Selectivity number of off-targets 0.0, Selectivity number of targets 1.0, Source Knowledge inhouse
[13] = target: Nuclear receptor subfamily 2 group E member 1 (Homo sapiens) (UniProt Q9Y466); test: Selectivity interaction (Reporter gene assay) EUB0000568a NR2E1; conditions: screened at recom. conc., Selectivity number of off-targets 2.0, Selectivity number of targets 5.0, Source Knowledge inhouse
[14] = target: T3, Alpha trans-inducing protein (Human alphaherpesvirus 1); test: Selectivity interaction (Reporter gene assay) EUB0000568a UL48
[15] = target: Nuclear receptor subfamily 2 group E member 1 (Homo sapiens) (UniProt Q9Y466); test: Selectivity interaction (Reporter gene assay) EUB0000563a NR2E1
[16] = target: T4, Nuclear receptor subfamily 2 group C member 1 (Homo sapiens); test: Selectivity interaction (Reporter gene assay) EUB0000563a NR2C1
[17] = target: T3, Alpha trans-inducing protein (Human alphaherpesvirus 1); test: Selectivity interaction (Reporter gene assay) EUB0000563a UL48
[18] = target: Steroidogenic factor 1 (Homo sapiens) (UniProt Q13285); test: Selectivity interaction (Reporter gene assay) EUB0000563a NR5A1
[19] = target: T2, Hepatocyte nuclear factor 4-alpha (Homo sapiens); test: Selectivity interaction (Reporter gene assay) EUB0000563a HNF4A
[20] = target: Nuclear receptor subfamily 4immunitygroup A member 1 (Homo sapiens) (UniProt P22736); test: Selectivity interaction (Reporter gene assay) EUB0000563a NR4A1
[21] = target: T1, Retinoic acid receptor RXR-alpha (Homo sapiens); test: Selectivity interaction (Reporter gene assay) EUB0000563a RXRA; conditions: reference bexarotene 1 uM, Selectivity number of off-targets 0.0, Selectivity number of targets 1.0, Source Knowledge inhouse
[22] = target: Nuclear receptor subfamily 4immunitygroup A member 1 (Homo sapiens) (UniProt P22736); test: Selectivity interaction (Reporter gene assay) EUB0000555a NR4A1
[23] = target: Steroidogenic factor 1 (Homo sapiens) (UniProt Q13285); test: Selectivity interaction (Reporter gene assay) EUB0000555a NR5A1
[24] = target: T2, Hepatocyte nuclear factor 4-alpha (Homo sapiens); test: Selectivity interaction (Reporter gene assay) EUB0000555a HNF4A
[25] = target: T3, Alpha trans-inducing protein (Human alphaherpesvirus 1); test: Selectivity interaction (Reporter gene assay) EUB0000555a UL48
[26] = target: T1, Retinoic acid receptor RXR-alpha (Homo sapiens); test: Selectivity interaction (Reporter gene assay) EUB0000555a RXRA
[27] = target: T4, Nuclear receptor subfamily 2 group C member 1 (Homo sapiens); test: Selectivity interaction (Reporter gene assay) EUB0000555a NR2C1
[28] = target: Nuclear receptor subfamily 2 group E member 1 (Homo sapiens) (UniProt Q9Y466); test: Selectivity interaction (Reporter gene assay) EUB0000555a NR2E1
[29] = target: Nuclear receptor subfamily 2 group E member 1 (Homo sapiens) (UniProt Q9Y466); test: Selectivity interaction (Reporter gene assay) EUB0000565a NR2E1
[30] = target: Steroidogenic factor 1 (Homo sapiens) (UniProt Q13285); test: Selectivity interaction (Reporter gene assay) EUB0000565a NR5A1
[31] = target: T1, Retinoic acid receptor RXR-alpha (Homo sapiens); test: Selectivity interaction (Reporter gene assay) EUB0000565a RXRA; conditions: reference bexarotene 1 uM, Selectivity number of off-targets 0.0, Selectivity number of targets 1.0, Source Knowledge inhouse
[32] = target: T2, Hepatocyte nuclear factor 4-alpha (Homo sapiens); test: Selectivity interaction (Reporter gene assay) EUB0000565a HNF4A
[33] = target: Retinoic acid receptor beta (Homo sapiens) (UniProt P10826); test: Selectivity interaction (Reporter gene assay) EUB0000565a RARB; conditions: screened at recom. conc., Selectivity number of off-targets 0.0, Selectivity number of targets 19.0, Source Knowledge inhouse
Chain of Retinoic acid receptor beta (Homo sapiens) (P10826 whole entry): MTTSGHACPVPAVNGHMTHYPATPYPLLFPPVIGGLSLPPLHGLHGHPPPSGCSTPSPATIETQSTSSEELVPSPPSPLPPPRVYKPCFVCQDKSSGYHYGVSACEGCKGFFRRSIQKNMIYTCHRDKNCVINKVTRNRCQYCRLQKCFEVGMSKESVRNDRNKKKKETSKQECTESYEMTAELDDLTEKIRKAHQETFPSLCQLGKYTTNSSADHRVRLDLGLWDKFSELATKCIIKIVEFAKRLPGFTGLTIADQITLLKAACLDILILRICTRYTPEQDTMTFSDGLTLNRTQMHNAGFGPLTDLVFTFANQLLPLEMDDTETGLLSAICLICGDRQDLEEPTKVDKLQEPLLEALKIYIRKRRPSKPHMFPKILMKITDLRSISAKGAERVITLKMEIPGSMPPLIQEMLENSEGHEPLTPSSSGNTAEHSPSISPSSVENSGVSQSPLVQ

[34] = target: Nuclear receptor subfamily 4immunitygroup A member 1 (Homo sapiens) (UniProt P22736); test: Selectivity interaction (Reporter gene assay) EUB0000565a NR4A1
[35] = target: T3, Alpha trans-inducing protein (Human alphaherpesvirus 1); test: Selectivity interaction (Reporter gene assay) EUB0000565a UL48
[36] = target: T4, Nuclear receptor subfamily 2 group C member 1 (Homo sapiens); test: Selectivity interaction (Reporter gene assay) EUB0000565a NR2C1

Work on `Cc1cccc(CN2CCN(C(c3ccccc3)c3ccc(Cl)cc3)CC2)c1` (stereo unspecified) yielded a Relative activation [1] of 0.534%, a Fold activation [2] of 1.01 and a Fold activation [3] of 1. For the same compound, the P-value [4] was 0.00398, the Remaining activity [5] was 0.814 and the Fold activation [6] was 1.14. For the same compound, the Fold activation [7] was 1.12.

`O=C(O)c1ccc2cc(-c3ccc(O)c(C45CC6CC(CC(C6)C4)C5)c3)ccc2c1` showed a Fold activation [8] of 1.24, a Remaining activity [9] of 0.803 and a Fold activation [10] of 1.34. The Fold activation [11] was 1.5, the Relative activation [12] was 0.61% and the Fold activation [13] was 2.03. The P-value [14] was 0.0191.

For `CCOC(=O)c1ccc(C#Cc2ccc3c(c2)C(C)(C)CCS3)nc1`, the Remaining activity [15] was 0.703, the Remaining activity [16] was 0.92 and the P-value [17] was 0.00141. For the same compound, the Remaining activity [18] was 0.803, the Remaining activity [19] was 0.921 and the Remaining activity [20] was 0.9. For the same compound, the Relative activation [21] was 0.694%.

In the case of `N[C@@H](Cc1cc(I)c(Oc2ccc(O)c(I)c2)c(I)c1)C(=O)O`, the Remaining activity [22] is reported as 0.804, the Remaining activity [23] is reported as 0.79 and the Remaining activity [24] is reported as 0.559. For the same compound, the P-value [25] was 8.08e-06, the Relative activation [26] was 0.715% and the Remaining activity [27] was 0.695. For the same compound, the Fold activation [28] was 1.03.

`CC1(C)C(=O)C(C)(C)c2cc(C(=O)Nc3ccc(C(=O)O)cc3)ccc21` gave a Remaining activity [29] of 0.923, a Remaining activity [30] of 0.944 and a Relative activation [31] of 0.48%. It also gave a Remaining activity [32] of 0.954, a Fold activation [33] of 13.5 and a Remaining activity [34] of 0.925. The P-value [35] was 0.000922 and the Fold activation [36] was 1.
